9 molecules from patent US6413997B1, “3-(substituted phenyl)-5-(substituted heterocyclyl)-1,2,4-triazole compounds” (priority 1998, dated 2002) can be followed below.

Molecules are shown by their SMILES.

Common to all, as to type: in vivo
The subject of data set [1] is cotton aphids (aphis gossypii). As to the kind of experiment: Insecticidal test for cotton aphid, foliar spray on infested squash cotyledons. To be noted: 50 ppm spray, graded after 3 days, versus untreated check. The protocol: Insecticidal Test for Cotton Aphid (Aphis gossypii)
To prepare spray solutions, 2 mg of each test compound was dissolved into 2 mL of a 90:10 acetone:ethanol solvent. This 2 mL of chemical solution was added to 38 mL of water containing 0.05% Tween 20 surfactant to produce a 50 ppm spray solution.
Squash cotyledons were infested with cotton aphid (all life stages16-20 hours prior to application of spray solution. The solution was sprayed on both sides of each infested squash cotyledon (0.5 mL×2 each side with a sweeping action using a total of 2 mL of spray solution. The plants were allowed to air dry and held for 3 days in a controlled room at 26° C. and 40% RH after which time the test was graded. Grading was by actual count using a dissecting microscope and comparison of test counts to the untreated check. Results are given in Table 1 as percent control based on population reduction versus the untreated.

Data set [2] deals with sweetpotato whitefly (bemisia tabaci). The experiment in a line: Sweetpotato whitefly test on cotton plants under laboratory conditions. To be noted: 800 ppm (table footnote), spray on cotton plants with eggs, 21 days, spent pupal cases versus solution-only plants. The protocol:
Evaluation of Tests Compounds on Sweetpotato Whitefly (Bemisia tabacia) Under Laboratory Conditions
Four mg of each test compound was dissolved by adding 5 ml of a 90:10 acetone:ethanol solvent mixture to the vial containing the sample compound. […]
Five-week-old cotton plants reared in a greenhouse were stripped of all foliage except for the two uppermost true leaves that were greater than 5 cm in diameter. These plants were then placed into a laboratory colony of whiteflies for three days for oviposition by the colony females. All whiteflies were then removed from the test plants with pressurized air. The spray solution was then applied to the test plants with a hand-held syringe fitted with hollow cone nozzle. One mL spray solution was applied to each leaf top and bottom for a total of 4 mL per plant. Four replications of each test compound utilized a total of 16 mL spray solution. Plants were air dried and then placed in a holding chamber (26° C. and 40% RH for 21 days. Compound efficacy was evaluated by counting, under a dissecting microscope, the number of spent pupal cases per leaf. A spent pupal case represents a whitefly egg that has undergone full development to achieve adult status, thus indicating lack of control.
Percent control based on reduction of spent pupal cases of a test compound compared to solution-only (no test compound sprayed plants is reported in Table 1.

Data set [3] deals with twospotted spider mite (tetranychus uriticae). As to the kind of experiment: Two-spotted spider mite test, ovicide method on cotton leaf discs. To be noted: leaf disc dip, 6 days, hatched larvae versus untreated discs. The protocol:
Insecticidal Test for Two-spotted Spider Mite (Tetranychus urticae)
Ten adult female two-spotted spider mites were placed on eight 2.2 cm leaf discs of cotton leaf, allowed to oviposit over 24 hours, and thereafter removed. The leaf discs were immersed in 100 ppm test solutions for 3 seconds, then allowed to dry with sixteen discs left untreated as a negative control. Discs were placed on an agar substrate and held at 24° C. and 90% relative humidity for 6 days.

On to `Cn1nc(-c2c(F)cccc2F)nc1-c1snnc1-c1ccccc1` [Compound 58], for which the “CA: activity at 50 ppm against cotton aphids (rating of % mortality / percent control)” value (“CA … (rating of % mortality / percent control)” for short) in data set [1] is given as “A (91-100)”. Besides, the “WF: activity at 800 ppm against sweetpotato whitefly (rating of % mortality / percent control)” value (from here on “WF … (rating of % mortality / percent control)”) in data set [2] was “G (Inactive)”. In addition, the “TSSM: activity at 100 ppm against twospotted spider mite (rating of % mortality / percent control)” value (from here on “TSSM … (rating of % mortality / percent control)”) in data set [3] is given as “C (71-80)”.
Regarding `Cc1cc(-c2nc(-c3c(F)cccc3F)nn2C)n(C)n1` [Compound 62], in data set [1], the “CA … (rating of % mortality / percent control)” value was “A (91-100)”. Also, in data set [2], the “WF … (rating of % mortality / percent control)” value is reported as “E (51-60)”. Besides, the “TSSM … (rating of % mortality / percent control)” value in data set [3] is on record as “G (Inactive)”.
Turning to `Cn1nc(-c2c(F)cccc2F)nc1-c1cc(C(C)(C)C)nn1Cc1ccccc1` [Compound 70], the “CA … (rating of % mortality / percent control)” value in data set [1] is on record as “B (81-90)”. The “WF … (rating of % mortality / percent control)” value in data set [2] is “E (51-60)”. In data set [3], the “TSSM … (rating of % mortality / percent control)” value is “G (Inactive)”.
The corresponding values for `Cc1cc(-c2nc(-c3c(F)cccc3F)nn2C)nn1C` [Compound 71] are “A (91-100)”, “G (Inactive)” and “G (Inactive)”.
For `Cc1cc(-c2nc(-c3c(F)cccc3Cl)nn2C)nn1C` [Compound 72], in data set [1], the “CA … (rating of % mortality / percent control)” value was “A (91-100)”. Further, the “WF … (rating of % mortality / percent control)” value in data set [2] was “G (Inactive)”. Further, the “TSSM … (rating of % mortality / percent control)” value in data set [3] is on record as “C (71-80)”.
On to `Cn1nc(-c2c(F)cccc2F)nc1-c1cnn(C)c1[N+](=O)[O-]` [Compound 78], for which the “CA … (rating of % mortality / percent control)” value in data set [1] was “A (91-100)”. The “WF … (rating of % mortality / percent control)” value in data set [2] was “G (Inactive)”. In data set [3], the “TSSM … (rating of % mortality / percent control)” value is reported as “A (91-100)”.
Consider `Cn1nc(-c2c(F)cccc2F)nc1-c1cnn(-c2ccc(Cl)cc2)c1C(F)(F)F` [Compound 79], for which the “CA … (rating of % mortality / percent control)” value in data set [1] is “A (91-100)”. Further, the “WF … (rating of % mortality / percent control)” value in data set [2] is “G (Inactive)”. In data set [3], the “TSSM … (rating of % mortality / percent control)” value is “G (Inactive)”.
In the case of `Cn1nc(-c2c(F)cccc2F)nc1-c1ccc(Br)n1C` [Compound 85], the “CA … (rating of % mortality / percent control)” value in data set [1] was “B (81-90)”. For the same molecule, the “WF … (rating of % mortality / percent control)” value in data set [2] is “G (Inactive)”. In addition, in data set [3], the “TSSM … (rating of % mortality / percent control)” value was “E (51-60)”.
Take `Cn1nc(-c2c(F)cccc2F)nc1-c1cc(Br)c(Br)n1C` [Compound 86]: the “CA … (rating of % mortality / percent control)” value in data set [1] is “A (91-100)”. The “WF … (rating of % mortality / percent control)” value in data set [2] is on record as “G (Inactive)”. For the same molecule, the “TSSM … (rating of % mortality / percent control)” value in data set [3] is recorded as “G (Inactive)”.
